From US20150368715A1, “DIAGNOSTIC AND TREATMENT OF CHRONIC HEART FAILURE” (Institut National de la Sante et de la Recherche Medicale …, priority 2010, published 2015)

How the values were obtained:
Type in all cases: cell-based, rat
[1] = tested on: caspase 3; assay: Caspase 3 activity monitoring in cardiac myoblasts; settings: ApoO+ cells incubated with palmitate, with or without added agent, FIG. 5A, 5L, 6E, 6F
Method: Palmitate preparation and caspase 3 activity measurement were performed as previously described (Hickson-Bick, Buja et al. 2000; Hirota, Otabe et al. 2006).

[2] = tested on: H9c2 cardiac myoblasts; assay: Oxygen flow measurement (cell respiration); settings: ApoO+ H9c2 cardiac myoblasts; CCCP 4 to 16 μM cumulative doses; FIG. 8A
[3] = tested on: AMPK; assay: Western blot analysis of AMPK phosphorylation; settings: ApoO+ cardiac myoblasts, with or without palmitate; FIG. 6G
[4] = tested on: H9c2 cardiac myoblasts; assay: Transmission electron microscopy of palmitate treated cells; settings: H9c2 (control) cardiac myoblasts treated with palmitate; not shown
[5] = tested on: long fatty acyl CoA synthetase; assay: Palmitoyl-coA synthase activity in H9c2 cardiac myoblasts; settings: control and ApoO+ H9c2 cardiac myoblasts; FIG. 7H

Q: With `O=c1cc(N2CCOCC2)oc2c(-c3ccccc3)cccc12` [LY294002] as the compound, how does the “caspase 3 activity” value [1] read?
A: Its value is “no significant effect”.

Q: How did the oxygen consumption [2] turn out when `N#CC(C#N)=NNc1cccc(Cl)c1` [CCCP, Carbonyl cyanide m-chlorophenyl hydrazone] was run?
A: Its oxygen consumption is “further increased”.

Q: With `CCCC[C@@H](C)[C@@H](OC(=O)C[C@@H](CC(=O)O)C(=O)O)[C@H](C[C@@H](C)C[C@H](O)CCCC[C@@H](O)C[C@H](O)[C@H](C)N)OC(=O)C[C@@H](CC(=O)O)C(=O)O` [Fumonisin B1] as the compound, how does the “caspase 3 activity” value [1] read?
A: Its value is “lowered caspase 3 activity”.

Q: And the “caspase 3 activity” value ([1]; listed as fumonisine B)?
A: The value was “partially attenuated”.

Q: Which results are given for `NC(=O)c1ncn([C@@H]2O[C@H](CO)[C@@H](O)[C@H]2O)c1N` [AICAR, 5-Aminoimidazole-4-carboxyamide ribonucleoside]?
A: caspase 3 activity [1]: significantly reduced; AMPK phosphorylation [3]: increased AMPK phosphorylation

Q: How did the “mitochondrial alteration by transmission electron microscopy” value [4] turn out when `CCCCCCCCCCCCCCCC(=O)O` [palmitate] was run?
A: Its value is “no significant effect”.

Q: How did the palmitoyl-coA activity [5] turn out when `CCC/C=C/C/C=C/C=C/C=N/NN=O` [triacsin C] was run?
A: Its palmitoyl-coA activity is “inhibited”.
